“And” between values parts separate entries of the source, which are not always exact repeats. Equal entries are not always repeated. “Also recorded” adds a separate entry of the source.
How the values were obtained:
outer membrane = conditions: cited from earlier work
Description: Resistance against known antibiotics is progressively spreading. Therefore, new antibacterial entities are urgently needed. […] The β-barrel assembly ... || The interaction between BamA and BamD is essential for the correct function of the BAM complex. BamE has been reported to stabilize the interaction between BamA and BamD [29]. In this work, BamE was not overexpressed alongside the fluorophore-labeled BamA and BamD fusion proteins. It is therefore unclear to what extent chromosomal-encoded BamE stabilized the complex between fluorophore-labelled BamA and BamD. It is also possible that the interaction measured between BamA and BamD was not affected by BamE at all, due to the low amount of BamE present in comparison to the plas ...

BamA = conditions: no specific interaction site known; cited from earlier work
Description: Resistance against known antibiotics is progressively spreading. Therefore, new antibacterial entities are urgently needed. According to the WHO, new antibiotics against gram-negative bacteria are in particular need. Common mechanisms of antibiotic resistance in gram-negative bacteria include changes in membrane and cell-wall permeability, biofilm formation, the production of efflux pumps and beta-lactamases, as well as mutation of typical targets. […] The β-barrel assembly ...

gram-negative bacteria = conditions: in vitro; cited from earlier work
Description: (§1) Resistance against known antibiotics is progressively spreading. Therefore, new antibacterial entities are urgently needed. […] The β-barrel assembly ...

[1] = test system: interaction between BamA and BamD; conditions: yeast two hybrid high throughput screening; cited from earlier work
Description: as §1

[2] = biological target: mNeonGreen-BamA (N-terminal fusion of mNeonGreen to BamA) (E. coli) (UniProt P0A940); assay: FRET or BRET; flow cytometry (three channels) of living E. coli BL21 co-expressing the mNeonGreen (donor) and mScarlet-I (acceptor) fusions from one plasmid; cells washed with PBS; binding model (law of mass action) fitted to DFRET and relative concentrations with Ka app, z and Fmax all as free parameters; apparent; five replicates on each of three days
[3] = biological target: BamA-mNeonGreen (C-terminal fusion of mNeonGreen to BamA) (E. coli) (UniProt P0A940); assay: as above
BamA–BamD interaction = assay: FRET-based determination of apparent affinity of BamA, BamD and their variants / FRET pairs in living E. coli cells; type: cell-based; conditions: BamA-mNeonGreen–BamD-mScarlet-I, n = 5 biological replicates (Figure 3c)
Description: E. coli Stellar (F−, endA1, supE44, thi-1, recA1, relA1, gyrA96, phoA, Φ80d lacZΔ M15, Δ(lacZYA-argF) U169, Δ(mrr-hsdRMS-mcrBC), ΔmcrA, λ−) was used for plasmid construction. E. coli BL21 (B, F^−, gal, dcm, Ion, hsdSB(rB^− mB^−), [malB^+]K-12(λ^S)) was used for expression of all fusion proteins and subsequent flow cytometric analysis. Plasmids were constructed by ligation free cloning using the InFusion™ cloning kit (Clonetech, San Jose, CA, USA) according to the manufacturer’s instructions, based on plasmid backbones described earlier. Details on the determinants and the construction of each of the used plasmids is given in the Supplementary Information (Supplementary Table S1 and Supplementary Text S1). Oligonucleotides used in their constructions are listed in Supplementary Table S2. Single-point mutations were introduced with the InFusion™ cloning kit. Oligonucleotides used are listed in Supplementary Table S2.
(§2) At the start of each experiment, E. coli BL21 cells were transformed with the corresponding plasmids, spread onto lysogeny broth-miller (LB)-agar plates with 50 µg/mL kanamycin (≥750 I.U./mg) or carbenicillin (purity: ≥88%) and grown over night. It turned out to be crucial to use freshly transformed cells for each experiment. Keeping the cells on agar plates for more than two days or cryoconservation of the cells led to an increase in the variability of the determined parameters Ka^app., z and Fmax. The following day, after transformation of the cells, 1 mL of LB medium with 50 µg/mL of the corresponding antibiotic in a 48-well plate was inoculated with a single colony and cultivated overnight (16 h) at 37 °C and 200 rpm. For protein production, M9 mineral medium was used, in which glucose was substituted by 1% (m/m) glycerol (purity: ≥99%) as the carbon source. A quantity of 200 µL of M9 medium in a 96-well plate was inoculated with 2 µL of the overnight culture and cultivated at 28 °C and 200 rpm for 6 h. Then, gene expression was induced with 1 mM L-rhamnose (purity: ≥98%), and afterwards an additional 2 h of cultivation with 0.2% (m/V) arabinose (purity: ≥99%). Cells that carried a plasmid that only contained one promotor were only treated with the corresponding inductor. Following induction of gene expression, cells were cultivated for an additional 16 h at 28 °C and 200 rpm. Cells were subsequently washed with PBS three times and then directly analyzed by flow cytometry.
(§3) A FACS Aria III flow cytometer (BD Bioscience, Franklin Lages, NJ, USA) with a 70 microns nozzle was used to analyze all cells. A three-channel method was used to measure the donor channel (mNeonGreeen), the acceptor channel (mScarlet-I) and the FRET channel. To measure the mNeonGreen fluorescence, an excitation wavelength of 488 nm and emission wavelength filters of 530/30 nm (band-pass) and 502 nm (long-pass) were used. mScarlet-I fluorescence was excited at 561 nm and measured with emission wavelength filters of 610/20 nm (band-pass) and 600 nm (long-pass). The FRET channel was measured with an excitation wavelength of 488 nm and emission filters of 610/20 nm (band-pass) and 600 nm (long-pass). A maximum of 10,000 cells per second were analyzed. FACSDiva™ Software (BD Bioscience, Franklin Lages, NJ, USA, version 8.0) was used for gating data analysis. For cells only expressing one fluorophore, 50,000 cells per sample were analyzed. […] A total of 50,000 cells inside the Q2 gate were analyzed. Examples are shown in Supplementary Figure S2. Cells at the edge of the plot were excluded during calculation of DFRET values and relative donor/acceptor concentrations.
Data points of all cells inside the analysis gate (Q2), as described in 2.4, were exported as FCS files using FACSDiva™ Software (BD Bioscience, Franklin Lages, NJ, USA, version 8.0). A custom Python program employing the FlowKit was subsequently used to convert the FCS formatted data into tab-delimited txt format. […]

Pseudomonas aeruginosa = conditions: cited from earlier work
Description: Mori et al. identified a peptide sequence (FIRL) that was highly conserved across BamD homologues in a wide variety of gram-negative bacteria. […] When the peptide was identified by Mori et al., no crystal structure of the BAM complex was available. When we located the amino acids of the FIRL peptide in the crystal structure of BamD, it turned out that only two of the four amino acids, R97 and L98, appeared to interact with BamA at site 2 (Figure 3c). The sidec ... || The interaction between BamA and BamD is essential for the correct function of the BAM complex. BamE has been reported to stabilize the interaction between BamA and BamD [29]. In this work, BamE was not overexpressed alongside the fluorophore-labeled BamA and BamD fusion proteins. It is therefore unclear to what extent chromosomal-encoded BamE stabilized the complex between fluorophore-labelled BamA and BamD. It is also possible that the interaction measured between BamA and BamD was not affected by BamE at all, due to the low amount of BamE present in comparison to the plas ...

bacterial growth = assay: inhibition of bacterial growth by the peptides; type: cell-based, E. coli; conditions: up to a concentration of 2.5 mM
[4] = test system: interaction between BamA and BamD (BamA-mNeonGreen and BamD-mScarlet-I); assay: FRET-based BamA–BamD interaction assay in living E. coli cells (flow cytometry), peptide treatment; type: cell-based; conditions: for Ka^app. of the BamA–BamD interaction after peptide treatment: cells incubated 3 h in water, z and Fmax kept constant, n = 5 biological replicates, untreated control in the RFIRLN experiment Ka^app. = 3.08 × 10^−4; for inhibition of the interaction between BamA and BamD (in words): living bacterial cells, 500 µM and 2.5 mM peptide, 3 h in water
Description: as §2, §3
Data points of all cells inside the analysis gate (Q2), as described in 2.4, were exported as FCS files using FACSDiva™ Software (BD Bioscience, Franklin Lages, NJ, USA, version 8.0). A custom Python program employing the FlowKit was subsequently used to convert the FCS formatted data into tab-delimited txt format.
Calculation of the DFRET and calculation of the relative concentration of the acceptor and donor from the flow cytometric data were performed as described by Hochreiter et al.. Cells with an RFU ≥ 250,000 were excluded from further analysis. Fitting of a binding model based on the law of mass actions to the data was also performed as described by Hochreiter et al.. The binding model used here (Equation (1)) fits the affinity (Ka^app), the stoichiometry (z) and the maximum FRET (Fmax) of a complex. To do so, the relative donor and acceptor concentration, as well as the DFRET, of a large number of cells with different expression levels has to be known. All other equations used for the calculations are described in Supplementary Text S1 for clarity. The FRET-efficiency of the donor- acceptor tandem, needed for the calculations, was determined by spectral unmixing according to Alexeeva et al. to be 0.43 [42]. […]

[5] = M9 medium or PBS; not soluble at concentrations above 1 mM
Description: Peptides (RFIRLN and […]) were synthesized by Genicbio with a purity of >95%. For treatment with the peptides, cells were grown as described above. […] Cells not treated with the peptide were also incubated in water for 3 h and used as a control for all experiments involving the peptides.

[6] = interaction site 1 variants, z and Fmax constant
[7] = interaction site 2 variants, z = 1, Fmax = 0.36 constant

COC(=O)c1c(NC(=O)c2ccc([N+](=O)[O-])o2)sc2c1CCN(C(C)C)C2 [IMB-H4]
permeabilization of the OM (outer membrane): shown to permeabilize the OM | binding to BamA (BamA): binds to BamA | antibacterial activity (gram-negative bacteria): showed antibacterial activity in vitro | inhibition of the interaction between BamA and BamD [1]: shown to inhibit the interaction between BamA and BamD

BamD-mScarlet-I (C-terminal fusion of mScarlet-I to BamD) (from UniProt P0AC02 20-245) (natural protein)
stoichiometry N [2]: 0.7 and 1.1 | stoichiometry N [3]: 1.3 and 1.6 and 1.2

BamD^E187A: BamD variant
Ka^app. (BamA–BamD interaction; [6]): 7.82 × 10^−5

BamD^L98A: BamD variant
Ka^app. (BamA–BamD interaction; [7]): 6.58 × 10^−5

BamD^N99A: BamD variant
Ka^app. (BamA–BamD interaction; [7]): 6.57 × 10^−5

BamD^R94A: BamD variant
Ka^app. (BamA–BamD interaction; [7]): 5.47 × 10^−5

BamD^R97A: BamD variant
Ka^app. (BamA–BamD interaction; [7]): 6.23 × 10^−5

BamD^Y184A: BamD variant
Ka^app. (BamA–BamD interaction; [6]): 5.27 × 10^−5

BamD^Y184F: BamD variant
Ka^app. (BamA–BamD interaction; [6]): 6.22 × 10^−5

BamD^Y185A: BamD variant, Y185 mutated to alanine
Ka^app. (BamA–BamD interaction; [6]): 6.22 × 10^−5

E183A: BamD variant
Ka^app. (BamA–BamD interaction; [6]): 7.2 × 10^−5

FIRL [peptide derived from BamD, Mori et al]
effect on outer membrane integrity / membrane permeability (outer membrane): cause membrane permeability in treated cells; also recorded: shown to interfere with outer membrane integrity | bacteriostatic or bactericidal effects (Pseudomonas aeruginosa): did not show any bacteriostatic or bactericidal effects | potentiation of antibiotics (Pseudomonas aeruginosa): potentiated the effect of antibiotics; also recorded: potentiate the activity of antibiotics

RFIRLN
inhibition of bacterial growth (bacterial growth): no inhibition of bacterial growth was detected up to a concentration of 2.5 mM | Ka^app. of the BamA–BamD interaction after peptide treatment ([4]; 500 µM peptide): 1.95 × 10^−4 | Ka^app. of the BamA–BamD interaction after peptide treatment ([4]; 2.5 mM peptide): 7.48 × 10^−5 | inhibition of the interaction between BamA and BamD (in words) [4]: inhibit the interaction between BamA and BamD in a dose-dependent manner in the upper micromolar range; also recorded: a clear dose-dependent effect was observed; also recorded: shown to inhibit binding of BamA to BamD in living cells | solubility [5]: ≤ 1000 µM

V181A: BamD variant
Ka^app. (BamA–BamD interaction; [6]): 6.66 × 10^−5

VAEYYTER
inhibition of bacterial growth (bacterial growth): no inhibition of bacterial growth was detected up to a concentration of 2.5 mM | Ka^app. of the BamA–BamD interaction after peptide treatment ([4]; 500 µM peptide): 1.75 × 10^−4 | Ka^app. of the BamA–BamD interaction after peptide treatment ([4]; 2.5 mM peptide): 1.03 × 10^−4 | inhibition of the interaction between BamA and BamD (in words) [4]: inhibit the interaction between BamA and BamD in a dose-dependent manner in the upper micromolar range; also recorded: a clear dose-dependent effect was observed; also recorded: able to disrupt the binding of BamD to BamA in living cells in high micromolar concentrations

Reference: PMC11592675, “Förster Resonance Energy Transfer Measurements in Living Bacteria for Interaction Studies of BamA with BamD and Inhibitor Identification” (Cells, 2024)
